Reference: patent US11077145B2, “Method for mass producing proteins in mesenchymal stem cells” (STEMMEDICARE CO., LTD., priority 2015, dated 2021)
Where “and” joins values, the source holds several entries; their conditions need not be identical. Equal entries are not always repeated. Marks after values point to notes of the source that are not given here.

Legend:
C57BL/6 mice [1] = assay: Hair growth suppression model (dexamethasone), hair growth score and number of hair follicles; assay type: in vivo, mouse; parameters: hair growth score, Average: scale not given here
Experimental: A comparative test was performed to examine the hair growth effect of the mesenchymal stem cell conditioned medium of the present invention using C57BL/6 mice. After depilating the test animals, the depilatory was treated to induce them from the telogen (resting phase) to the anagen (growing phase), and then to suppress the growth of hair follicles, 0.1% of dexamethanone was transdermally administered for 5 days from 8 days after depilation repeatedly. Next, in order to compare the growth promoting effect of the test substance containing 3% of the mesenchymal stem cell conditioned medium of the present invention, the growth promoting effects were compared with the test substance by transdermally administered repeatedly of G1 (distilled water control), G2 (placebo control), G3 (test substance) and G4 (positive control-minoxidil 5%) for 8 days.

C57BL/6 mice [2] = assay: Anagen hair model, hair growth score and number of hair follicles; assay type: in vivo, mouse; parameters: hair growth score, Average: scale not given here
Experimental: A comparative test was performed to investigate the effect of hair growth promotion of the mesenchymal stem cell conditioned medium of the present invention using C57BL/6 mice. After induction of the hair follicles of the test animal from the telogen (resting phase) to the […] (growing phase) and depilatione, in order to compare the growth promoting effect of the test substance containing 3% of the mesenchymal stem cell conditioned medium of the present invention, G1 (distilled water control), G2 (placebo control), G3 (test substance) and G4 (positive control-minoxidil 5%) were transdermally administered repeatedly for 14 days respectively, and the hair growth promoting effects were compared with the test substance.

[3] = individual animal average of 3 areas
[4] = individual animal, female, 8th day of administration
[5] = individual animal, histopathological examination
[6] = individual animal, female, 13th day

Nc1cc(N2CCCCC2)nc(N)[n+]1[O-] [G4, Minoxidil]
number of hair follicles, Total Average (C57BL/6 mice [1]; group average, transdermal for 8 days): 66.37 | hair growth score, Total Average (C57BL/6 mice [1]; group average, transdermal for 8 days, 8th day): 2.68 points | number of hair follicles, Average (C57BL/6 mice [1]; [3]): 87.67 and 92.33 and 71.00 and 36.33 and 108.33 and 61.33 and 45.33 and 29.67 and 36.00 and 95.67 | hair growth score, Average (C57BL/6 mice [1]; individual animal average, 8th day of administration): 3.00 (3×) and 1.75 (2×) and 2.25 and 2.75 (2×) and 2.50 and 4.00 | hair growth score, Score 1st (C57BL/6 mice [1]; [4]): 2 (40~59% (2)) (6×) and 1 (20~39% (1)) (2×) and 3 (60~79% (3)) and 4 (80~100% (4)) | hair growth score, Score 2nd (C57BL/6 mice [1]; [4]): 2 (40~59% (2)) (7×) and 1 (20~39% (1)) (2×) and 4 (80~100% (4)) | hair growth score, Score 3rd (C57BL/6 mice [1]; [4]): 4 (80~100% (4)) (4×) and 2 (40~59% (2)) (3×) and 3 (60~79% (3)) (2×) and 1 (20~39% (1)) | hair growth score, Score 4th (C57BL/6 mice [1]; [4]): 4 (80~100% (4)) (7×) and 3 (60~79% (3)) (3×) | number of hair follicles, Area 1 (C57BL/6 mice [1]; [5]): 70 and 97 and 66 and 53 and 114 and 65 and 78 and 46 and 37 and 95 | number of hair follicles, Area 2 (C57BL/6 mice [1]; [5]): 96 and 87 (2×) and 65 and 37 (2×) and 108 and 52 and 19 and 48 | number of hair follicles, Area 3 (C57BL/6 mice [1]; [5]): 97 and 93 and 82 and 19 and 103 and 67 and 21 and 24 and 23 and 105 | hair growth score, Average (C57BL/6 mice [2]; 15th day, female C57BL/6 mice, average of the four scores per animal): 4 (4×) and 3.75 (3×) and 3.5 (3×) | hair growth score, Total Average (C57BL/6 mice [2]; 15th day, female C57BL/6 mice, group average, transdermal administration for 14 days): 3.78** | hair growth score, Score 1st (C57BL/6 mice [2]; 15th day, female C57BL/6 mice, individual animal, 1st score): 4 (80~100% (4)) (9×) and 3 (60~79% (3)) | hair growth score, Score 2nd (C57BL/6 mice [2]; 15th day, female C57BL/6 mice, individual animal, 2nd score): 4 (80~100% (4)) (5×) and 3 (60~79% (3)) (5×) | hair growth score, Score 3rd (C57BL/6 mice [2]; 15th day, female C57BL/6 mice, individual animal, 3rd score): 4 (80~100% (4)) | hair growth score, Score 4th (C57BL/6 mice [2]; 15th day, female C57BL/6 mice, individual animal, 4th score): 4 (80~100% (4)) (7×) and 3 (60~79% (3)) (3×) | hair growth score, Total Average (C57BL/6 mice [2]; group average, 13th day): 3.27 point | hair growth score, Total Average (C57BL/6 mice [2]; group average, 15th day): 3.78 point | number of hair follicles, Total Average (C57BL/6 mice [2]; group average, transdermal for 14 days): 104.70 | number of hair follicles, Average (C57BL/6 mice [2]; [3]): 191.33 and 107.67 and 69.00 and 149.67 and 54.67 and 82.67 and 72.33 and 130.33 and 138.67 and 50.67 | hair growth score, Average (C57BL/6 mice [2]; individual animal average, 13th day): 3.67 (2×) and 4.00 (2×) and 3.33 (2×) and 3.00 and 2.33 and 2.67 (2×) | hair growth score, Score 1st (C57BL/6 mice [2]; [6]): 3 (60~79% (3)) (4×) and 4 (80~100% (4)) (2×) and 2 (40~59% (2)) (4×) | hair growth score, Score 2nd (C57BL/6 mice [2]; [6]): 3 (60~79% (3)) (5×) and 4 (80~100% (4)) (2×) and 1 (20~39% (1)) (2×) and 2 (40~59% (2)) | hair growth score, Score 3rd (C57BL/6 mice [2]; [6]): 4 (80~100% (4)) (6×) and 3 (60~79% (3)) (4×) | hair growth score, Score 4th (C57BL/6 mice [2]; [6]): 4 (80~100% (4)) (5×) and 3 (60~79% (3)) (5×) | number of hair follicles, Area 1 (C57BL/6 mice [2]; [5]): 232 and 48 and 92 and 135 and 45 and 90 and 71 and 149 and 121 and 53 | number of hair follicles, Area 2 (C57BL/6 mice [2]; [5]): 209 and 135 and 55 and 155 and 50 and 94 and 79 and 126 and 164 and 41 | number of hair follicles, Area 3 (C57BL/6 mice [2]; [5]): 133 and 140 and 60 and 159 and 69 and 64 and 67 and 116 and 131 and 58
